From publication PMC4729890 (Frontiers in Molecular Neuroscience, 2016)

Key:
ROS-GC1 [1] = target: T1, ROS-GC1 (Bos taurus, UniProt P55203, F570S); assay: biochemical
T1 construct: gene GUCY2D

ROS-GC1 [2] = target: T2, ROS-GC1 (Bos taurus, UniProt P55203); assay: biochemical
T2 construct: gene GUCY2D
T2 sequence (P55203 57-1110): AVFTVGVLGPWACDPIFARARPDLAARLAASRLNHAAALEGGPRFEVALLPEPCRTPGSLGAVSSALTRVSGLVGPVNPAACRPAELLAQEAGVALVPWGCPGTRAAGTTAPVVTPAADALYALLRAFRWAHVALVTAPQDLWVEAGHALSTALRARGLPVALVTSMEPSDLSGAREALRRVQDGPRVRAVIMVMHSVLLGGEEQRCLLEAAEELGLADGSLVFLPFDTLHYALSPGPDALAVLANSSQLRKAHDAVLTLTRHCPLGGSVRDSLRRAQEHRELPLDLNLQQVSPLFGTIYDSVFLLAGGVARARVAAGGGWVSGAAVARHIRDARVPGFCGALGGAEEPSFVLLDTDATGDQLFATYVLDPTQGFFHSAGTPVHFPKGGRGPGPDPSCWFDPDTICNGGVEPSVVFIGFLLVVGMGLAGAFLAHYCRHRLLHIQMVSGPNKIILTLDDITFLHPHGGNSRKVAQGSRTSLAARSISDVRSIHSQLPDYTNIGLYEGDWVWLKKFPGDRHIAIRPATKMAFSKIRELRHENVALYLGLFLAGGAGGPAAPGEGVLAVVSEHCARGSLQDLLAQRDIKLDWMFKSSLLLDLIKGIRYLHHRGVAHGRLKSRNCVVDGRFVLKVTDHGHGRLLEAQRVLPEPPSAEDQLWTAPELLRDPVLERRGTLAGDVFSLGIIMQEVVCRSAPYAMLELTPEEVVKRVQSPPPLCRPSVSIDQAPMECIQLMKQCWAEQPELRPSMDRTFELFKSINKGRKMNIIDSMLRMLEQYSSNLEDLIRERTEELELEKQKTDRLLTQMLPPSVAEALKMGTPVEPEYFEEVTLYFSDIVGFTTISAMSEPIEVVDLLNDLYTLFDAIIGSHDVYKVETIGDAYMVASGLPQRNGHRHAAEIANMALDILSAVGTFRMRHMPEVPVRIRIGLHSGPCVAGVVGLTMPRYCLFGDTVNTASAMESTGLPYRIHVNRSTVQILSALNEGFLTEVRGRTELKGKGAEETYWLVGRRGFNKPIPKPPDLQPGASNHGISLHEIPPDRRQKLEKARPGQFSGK

T1 sequence (P55203 57-1110 F570S): as the sequence (P55203 57-1110) above, with F514S counted along it

EC50 (ROS-GC1 [1]): 25 mM
EC50 (ROS-GC1 [2]): 16 mM
Compound: O=C(O)O [bicarbonate]
